Earlier results on five compounds are cited in US20060089343A1, “Superoxide dismutase mimics for the treatment of ocular disorders and diseases” (ALCON, INC., priority 2002, published 2006).

The conditions of data set [1]: diabetogenic T-cell clone.
The conditions of data set [2]: albino rats.
For data set [3] the following is noted: diabetic rats.
The subject of the next data set is IL-6 and MIP-2. The following applies: administration after induction of cerebral ischemia.
For data set [4] the following is noted: given either before or after induction of cerebral ischemia.

As to `CCN1C=CC=C/C1=C1/C2=NC(=C(c3cccc[n+]3CC)C3=NC(=C(c4cccc[n+]4CC)c4ccc([n-]4)C(c4cccc[n+]4CC)=C4C=CC1=N4)C=C3)C=C2.[Cl-].[Cl-].[Cl-].[Cl-].[Cl-].[Mn+3]` [AEOL10113], in data set [1], the onset of diabetes result is listed as “delay the onset of diabetes”.

Regarding `CC1(C)CC(O)CC(C)(C)N1[O]` [4-hydroxy-2,2,6,6-tetramethylpiperidine-1-oxyl], the light-induced retinal damage result in data set [2] is “inhibited light-induced retinal damage”.

`[Cl-].[Cl-].[Mn+2].c1cc2nc(c1)CN[C@@H]1CCCC[C@H]1NCCN[C@@H]1CCCC[C@H]1NC2` [Compound M40403]: the “vascular and neural dysfunction” value in data set [3] was “prevented vascular and neural dysfunction”.

Turning to `CCn1cc[n+](CC)c1C1=C2C=CC3=[N+]2[Mn]24[n]5c1ccc5C(c1n(CC)cc[n+]1CC)=C1C=CC(=[N+]12)C(c1n(CC)cc[n+]1CC)=c1ccc([n]14)=C3c1n(CC)cc[n+]1CC` [Compound 1], the “expression of pro-inflammatory proteins, such as IL-6 and MIP-2” value with IL-6 and MIP-2 is recorded as “attenuation of the increased expression”.

Consider `CC[n+]1ccccc1C1=C2C=CC3=[N+]2[Mn]24[n]5c1ccc5C(c1cccc[n+]1CC)=C1C=CC(=[N+]12)C(c1cccc[n+]1CC)=c1ccc([n]14)=C3c1cccc[n+]1CC` [Compound 2], for which the infarct volume result in data set [4] is “reduces infarct volume”.
